Laboratory results published in paper PMC5520492, “Inhibition of DNA2 nuclease as a therapeutic strategy targeting replication stress in cancer cells” (Oncogenesis, 2017).

Biological target: T1, hDNA2 (Homo sapiens, UniProt P51530)
T1 construct: made in house
T1 sequence (P51530 1-1060): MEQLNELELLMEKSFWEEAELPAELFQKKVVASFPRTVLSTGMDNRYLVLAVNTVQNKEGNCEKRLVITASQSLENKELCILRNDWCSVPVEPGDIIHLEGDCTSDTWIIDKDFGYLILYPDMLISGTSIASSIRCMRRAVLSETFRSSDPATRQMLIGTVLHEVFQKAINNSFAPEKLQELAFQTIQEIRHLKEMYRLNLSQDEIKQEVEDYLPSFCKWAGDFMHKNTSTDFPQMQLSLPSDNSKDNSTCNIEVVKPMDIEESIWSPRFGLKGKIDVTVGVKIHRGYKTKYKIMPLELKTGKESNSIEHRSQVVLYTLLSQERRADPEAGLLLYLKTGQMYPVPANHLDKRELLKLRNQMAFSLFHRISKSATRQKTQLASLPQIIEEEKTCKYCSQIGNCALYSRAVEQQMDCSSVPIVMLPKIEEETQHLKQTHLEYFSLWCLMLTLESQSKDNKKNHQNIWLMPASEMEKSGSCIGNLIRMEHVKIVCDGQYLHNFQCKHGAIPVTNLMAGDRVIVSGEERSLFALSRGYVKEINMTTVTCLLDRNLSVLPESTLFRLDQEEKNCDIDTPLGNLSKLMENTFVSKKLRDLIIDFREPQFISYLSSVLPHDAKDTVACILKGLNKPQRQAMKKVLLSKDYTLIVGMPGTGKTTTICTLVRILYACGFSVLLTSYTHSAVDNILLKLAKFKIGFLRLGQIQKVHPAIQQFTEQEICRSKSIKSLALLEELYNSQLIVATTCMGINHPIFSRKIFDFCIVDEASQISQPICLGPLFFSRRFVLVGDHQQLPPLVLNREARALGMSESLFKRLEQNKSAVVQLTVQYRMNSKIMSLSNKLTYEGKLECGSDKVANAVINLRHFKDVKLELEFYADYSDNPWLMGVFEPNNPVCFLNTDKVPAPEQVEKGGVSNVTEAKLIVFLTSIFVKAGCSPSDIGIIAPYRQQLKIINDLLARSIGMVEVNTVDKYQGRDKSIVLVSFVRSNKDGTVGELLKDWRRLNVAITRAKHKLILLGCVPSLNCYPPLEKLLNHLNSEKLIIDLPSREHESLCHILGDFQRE
Test: 5' flap processing by hDNA2
Type: biochemical
Conditions: DNA2 […], Y DNA substrate 5 nM ends
Method: Nuclease assays were performed in buffer R (20 mM Na-HEPES pH 7.5, 1 mM ATP, 0.1 mM DTT, 100 μg/ml bovine serum albumin, 0.05% Triton X-100, 2 mM MgCl2, 100 mM KCl) and contained 0.5 nM ends (2-kb substrate) or 5 nM ends (the ssDNA oligonucleotide PSOL6929) of DNA. Reactions containing Bloom syndrome also included an ATP regenerating system consisting of 10 mM creatine phosphate and 50 μg/ml creatine kinase. In control reactions, DMSO was used in place of the inhibitor. Reactions with DNA2 alone were incubated at 30 °C, and those with DNA2-Bloom syndrome-Replication protein A and EXO1 were incubated at 37 °C for the indicated times. […] Gels were dried onto DEAE paper on top of Whatman filter paper (GE, Issaquah, WA, USA) and then analyzed in a BioRad Personal Molecular Imager FX phosphorimager. Band intensity was quantified using Image Lab software (Bio-Rad, Hercules, CA, USA). The fraction of DNA substrate digested was determined by measuring the amount of substrate remaining and normalizing to the total substrate in the negative control lane containing no protein.
Figure S2. […] (b) Plots showing quantitation of the experiments shown in a. […] (d) Plots showing quantitation of the experiments shown in c. […] (f) Plot showing quantitation of the experiment in e. […]

Compound	5′ flap processing by hDNA2
NC1=C(Br)C(=O)c2ncccc2C1=O [NSC-105808, 6-amino-7-bromoquinoline-5,8-dione]	inhibited
O=C1C(=O)c2cc([N+](=O)[O-])ccc2-c2ccccc21 [NSC-5195242, 2-nitrophenanthrene-9,10-dione]	inhibited
